From PubChem BioAssay (NCI) come the findings set out here.

Test systems include EKVX NSCLC; HOP-62 NSCLC; HCT-15 colon; SF-295 CNS; COLO 205 colon; K-562 leukemia; A498 renal; MDA-N; IGROV1 ovarian; SK-MEL-28 melanoma; NCI/ADR-RES ovarian.
Common to all, as to assay: NCI tumour cell line growth inhibition, 48 h

SMILES strings stand for the structures.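 Results reflect a 48-hour exposure of cells in 96-well plates to compound at five concentrations. TGI marks complete inhibition of growth.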 Bounds are passed on as bounds.

As for `O=C1C(C(c2ccc([N+](=O)[O-])cc2)N2CCOCC2)=C(O)C(c2ccccc2)N1c1ccccc1` (configuration not stated), the TGI in the experiment on EKVX NSCLC, in the experiment on HOP-62 NSCLC, in the experiment with HCT-15 colon, in the experiment on SF-295 CNS, in the experiment with COLO 205 colon and in the experiment with K-562 leukemia was more than 10 µM in each case. Further, the TGI in the experiment on A498 renal, in the experiment on MDA-N, with IGROV1 ovarian, with SK-MEL-28 melanoma and with NCI/ADR-RES ovarian was more than 10 µM throughout.

For the compound `C/C(=N/NC(=S)Nc1cccc(Cl)c1)c1ccccn1`, the TGI in the experiment with EKVX NSCLC was 3.33 µM; with HOP-62 NSCLC, 3.5 µM; in the experiment on HCT-15 colon it was 16.1 µM; in the experiment on SF-295 CNS it was 9.39 µM; in the experiment with COLO 205 colon it was 5.18 µM; with K-562 leukemia, 2.85 µM. The TGI in the experiment with A498 renal was 7.56 µM; in the experiment on MDA-N it was 15.5 µM; with IGROV1 ovarian, 9.29 µM; in the experiment on SK-MEL-28 melanoma it was 16 µM; in the experiment with NCI/ADR-RES ovarian, 4.58 µM.

Take `Nc1ncnc2c1ncn2C1OC(CO)C(O)C1NS(=O)(=O)c1ccccc1` (configuration not stated): the TGI in the experiment on EKVX NSCLC, in the experiment on HOP-62 NSCLC, in the experiment with HCT-15 colon, with SF-295 CNS, in the experiment with COLO 205 colon and in the experiment with K-562 leukemia was more than 100 µM throughout. Moreover, the TGI with A498 renal, with MDA-N, in the experiment with IGROV1 ovarian, with SK-MEL-28 melanoma and with NCI/ADR-RES ovarian was more than 100 µM in each case.

For the compound `CCCCOc1c(C(=O)O)cc(Br)cc1C(=O)O`, the TGI in the experiment with EKVX NSCLC, with HOP-62 NSCLC, in the experiment on HCT-15 colon, in the experiment on SF-295 CNS, in the experiment on COLO 205 colon and in the experiment with K-562 leukemia was more than 100 µM throughout. For the same compound, the TGI in the experiment with A498 renal, in the experiment with MDA-N, in the experiment with IGROV1 ovarian, with SK-MEL-28 melanoma and in the experiment on NCI/ADR-RES ovarian was more than 100 µM each time.

On to `N#C/C(=C/n1c(=S)[nH]c2ccccc21)C(N)=O`, for which the TGI with EKVX NSCLC, with HOP-62 NSCLC, with HCT-15 colon, in the experiment with SF-295 CNS, in the experiment on COLO 205 colon and in the experiment with K-562 leukemia was more than 100 µM each time. The TGI with A498 renal, in the experiment with MDA-N, with IGROV1 ovarian, in the experiment with SK-MEL-28 melanoma and with NCI/ADR-RES ovarian was more than 100 µM each time.

Turning to `COC(=O)CCCC1(CCCC(=O)OC)CCCCCCCCC(CCCC(=O)OC)(CCCC(=O)OC)C(=O)C1=O`, the TGI with EKVX NSCLC is more than 100 µM; in the experiment on HOP-62 NSCLC it was more than 100 µM; in the experiment on HCT-15 colon, more than 100 µM; in the experiment with SF-295 CNS, more than 100 µM; with COLO 205 colon, more than 100 µM; in the experiment with K-562 leukemia it was 37.8 µM. Further, the TGI in the experiment with A498 renal was more than 100 µM; with MDA-N, more than 100 µM; in the experiment with IGROV1 ovarian, 47.6 µM; in the experiment on SK-MEL-28 melanoma, more than 100 µM; with NCI/ADR-RES ovarian, more than 100 µM.

Consider `CC(C)NCC(O)c1ccc(O)c2ncccc12` (configuration not stated), for which the TGI is more than 100 µM with EKVX NSCLC; more than 100 µM with HOP-62 NSCLC; more than 100 µM in the experiment with HCT-15 colon; more than 100 µM with SF-295 CNS; 36.4 µM in the experiment with COLO 205 colon; more than 100 µM in the experiment on K-562 leukemia. Besides, the TGI with A498 renal was more than 100 µM; in the experiment on MDA-N, more than 100 µM; with IGROV1 ovarian, more than 100 µM; in the experiment with SK-MEL-28 melanoma, more than 100 µM; with NCI/ADR-RES ovarian, 92.5 µM.

Take `c1ccc(C(c2cccc3c2ccc2ccccc23)C(c2ccccc2)c2cccc3c2ccc2ccccc23)cc1` (configuration not stated): the TGI with EKVX NSCLC, in the experiment with HOP-62 NSCLC, in the experiment on HCT-15 colon, in the experiment on SF-295 CNS, in the experiment on COLO 205 colon and with K-562 leukemia was more than 100 µM in each case. In addition, the TGI in the experiment with A498 renal, in the experiment on MDA-N, in the experiment with IGROV1 ovarian, with SK-MEL-28 melanoma and in the experiment on NCI/ADR-RES ovarian was more than 100 µM in each case.

Regarding `O=S(c1ccccc1)C1CC2CC3(CCC21O)OCCO3` (configuration not stated), the TGI in the experiment with EKVX NSCLC, with HOP-62 NSCLC, in the experiment on HCT-15 colon, in the experiment with SF-295 CNS, in the experiment with COLO 205 colon and with K-562 leukemia was more than 100 µM each time. In addition, the TGI in the experiment on A498 renal, in the experiment on MDA-N, in the experiment on IGROV1 ovarian, in the experiment on SK-MEL-28 melanoma and in the experiment with NCI/ADR-RES ovarian was more than 100 µM throughout.

For `CCOC(=O)C1(C#N)C2(C#N)C(N)=NC(ON=C(C)C)(ON=C(C)C)C12C#N` (configuration not stated), the TGI in the experiment with EKVX NSCLC, with HOP-62 NSCLC, with HCT-15 colon, in the experiment with SF-295 CNS, with COLO 205 colon and with K-562 leukemia was more than 100 µM throughout. In addition, the TGI in the experiment with A498 renal, with MDA-N, in the experiment with IGROV1 ovarian, in the experiment on SK-MEL-28 melanoma and in the experiment on NCI/ADR-RES ovarian was more than 100 µM throughout.

For `O=C(/C=C/c1ccc(OCc2ccccc2)cc1)NCc1ccc(C(=O)NCc2ccccc2)cc1`, the TGI in the experiment on EKVX NSCLC, with HOP-62 NSCLC, in the experiment on HCT-15 colon, with SF-295 CNS, in the experiment with COLO 205 colon and in the experiment with K-562 leukemia was more than 100 µM each time. Further, the TGI in the experiment on A498 renal, in the experiment on MDA-N, with IGROV1 ovarian, in the experiment on SK-MEL-28 melanoma and in the experiment on NCI/ADR-RES ovarian was more than 100 µM each time.

In the case of `CC(=O)NNc1nc(C)c(C(/C=C/c2ccc([N+](=O)[O-])cc2)=N/NC(N)=O)s1`, the TGI with EKVX NSCLC, with HOP-62 NSCLC, in the experiment on HCT-15 colon, in the experiment on SF-295 CNS, with COLO 205 colon and in the experiment on K-562 leukemia was more than 100 µM each time. For the same compound, the TGI in the experiment with A498 renal, in the experiment on MDA-N, in the experiment on IGROV1 ovarian, in the experiment with SK-MEL-28 melanoma and with NCI/ADR-RES ovarian was more than 100 µM each time.
